# Key:
# DFTD1 cells = experiment: MTT cell viability, DFTD1 cells; type: cell-based, Tasmanian devil (Sarcophilus harrisii); details: Table 3, 48 h
# Text: (§1) All DFTD (DFTD1, DFTD2, and DFTD4) and fibroblast (FIBS) cell lines were obtained from the Department of Primary Industries, Parks, Water, and Environment, State Government of Tasmania (DPIPWE) and were established as part of management plan and adhere to a standard operating practice. The DFTD1 cell line with catalogue number 3287 is derived from the tumour from a female devil (tag number: 06/2887) collected at St Marys, Eastern Tasmania in 2006. DFTD2 cell line with catalogue number 8961 was developed from a tumour from a male devil (tag number: 12/0625) collected at Kempton, Northern Tasmania in 2012. The DFTD4 cell line with catalogue number 4099 was developed from the tumour of a male devil (tag number: 07/0192) that was collected at Freycinet, east coast of Tasmania in 2007 and Fibroblasts cells (FIBS) with catalogue number 497 were obtained from a healthy devil male pup (tag number: 05/0962) held at Mount Pleasant, Southeastern of Tasmania in 2005. […]
# (§2) Cell viability as an indicator of the number of viable and proliferative cells was measured by MTT according to the protocol of the manufacturer (Sigma-Aldrich, Australia). […] Plates were measured after 48 h at 540 nm absorbance in a microplate reader (BIOTEK PowerWave XS, USA). […]
# DFTD4 cells [1] = experiment: Reactive oxygen species (Carboxy-H2DCFDA, flow cytometry); type: cell-based, Tasmanian devil (Sarcophilus harrisii); details: 50 μg/mL, 24 h, vs. untreated
# Procedure: An Amplex Red Hydrogen Peroxidase assay kit (Invitrogen, Australia) was used to measure reactive oxygen species (ROS) generation in DFTD4 cells. A fluorescence probe that detects intracellular H2O2, Carboxy-H2DCFDA, was added 30 min prior to collecting cells to measure ROS production in DFTD4 cells that were previously treated with gomesin peptides at 50 µg/mL for 24 h. Fluorescent cells were washed twice with PBS prior to analysis on a FACSCalibur flow cytometer (BD Biosciences, USA) using excitation and emission wavelengths of 492 nm and 517 nm, respectively. Approximately 10,000 events were recorded per sample and the readout was analysed using FlowJo software v10.06 (FlowJo, USA).
# DFTD4 cells [2] = experiment: Annexin V-FITC/PI apoptosis and necrosis; type: cell-based, Tasmanian devil (Sarcophilus harrisii); details: 50 µg/mL, 24 h
# Procedure: Apoptosis in DFTD4 cells treated with AgGom or HiGom was measured using an Annexin V-FITC Apoptosis detection kit in combination with a Canto II high-throughput fluorescence-activated cell sorter (BD Biosciences, USA). Briefly, cells were seeded at a density of 100,000 cells/well in a round-bottom 96-well plate and treated with 50 µg/mL AgGom or HiGom for 24 h. The cells were collected mechanically, washed twice with PBS and once with wash buffer provided by the manufacturer. Cells were stained simultaneously with FITC-labelled annexin V and PI for 30 min in the dark and at room temperature before being analysed.
# DFTD4 cells [3] = experiment: Cell cycle analysis (PI, flow cytometry); type: cell-based, Tasmanian devil (Sarcophilus harrisii); details: 50 μg/mL, 24 h, mean ± SEM, three independent experiments
# Procedure: DFTD4 cells were synchronised by removing serum from the medium for ~24 h. Cells were then transferred into medium containing serum and treated with AgGom or HiGom at 50 µg/mL for 24 h. Cells were detached mechanically, washed with PBS and fixed with 70% ethanol for ~1 h at 4 °C. Ethanol was removed by centrifugation (453 g for 5 min) and cells were washed with PBS. Cells were treated with 5 µL of 10 µg/mL ribonuclease A to remove RNA contamination and further incubated for 1 h at 37 °C to allow release of low-molecular weight DNA. Cell pellets were stained with 10 µL of propidium iodide (PI) (1 mg/ml) and analysed at a maximum emission of 605 nm using a LSR Fortessa 5 analyser (BD Biosciences, San Diego, CA, US). Approximately 10,000 events were recorded and data were analysed using FlowJo software v10.06 (FlowJo, US).
# DFTD4 cells [4] = experiment: Mitochondrial membrane potential (Rhodamine 123); type: cell-based, Tasmanian devil (Sarcophilus harrisii); details: 50 µg/mL, 24 h, vs. vehicle
# Procedure: We measured the mitochondrial membrane potential (MMP) using Rhodamine 123 (Rhod-123) (Sigma-Aldrich, Australia), a cationic dye that is localised in mitochondria. Loss-of-MMP results in loss-of-Rhod-123 fluorescence. Approximately 1 × 10^6 DFTD4 cells treated with AgGom or HiGom at 50 µg/mL for 24 h were collected and resuspended in 0.1 ml of culture medium, stained with 10 µg/mL Rhod-123 for 30 min, and then washed with PBS. The intracellular concentration of Rho123 was determined immediately after by flow cytometry (BD Biosciences, USA) using an excitation wavelength of 488 nm. The data were analysed using FlowJo v10.06 (FlowJo, USA).
# FIBS cells = experiment: MTT cell viability, non-transformed fibroblasts (FIBS); type: cell-based, Tasmanian devil (Sarcophilus harrisii); details: 50 µg/mL, 48 h
# Text: (§3) All DFTD (DFTD1, DFTD2, and DFTD4) and fibroblast (FIBS) cell lines were obtained from the Department of Primary Industries, Parks, Water, and Environment, State Government of Tasmania (DPIPWE) and were established as part of management plan and adhere to a standard operating practice. The DFTD1 cell line with catalogue number 3287 is derived from the tumour from a female devil (tag number: 06/2887) collected at St Marys, Eastern Tasmania in 2006. DFTD2 cell line with catalogue number 8961 was developed from a tumour from a male devil (tag number: 12/0625) collected at Kempton, Northern Tasmania in 2012. The DFTD4 cell line with catalogue number 4099 was developed from the tumour of a male devil (tag number: 07/0192) that was collected at Freycinet, east coast of Tasmania in 2007 and Fibroblasts cells (FIBS) with catalogue number 497 were obtained from a healthy devil male pup (tag number: 05/0962) held at Mount Pleasant, Southeastern of Tasmania in 2005.
# (§4) Devil Facial Tumor cancer cell lines, and the control Tasmanian Devil fibroblast (FIBS) healthy cell line were maintained in a humidified incubator at 35 °C and 5% CO2. The DFTD cell lines were cultured in RPMI-1640 medium supplemented with 10% FCS, and 2 mM Glutamax. The FIBS was grown in GIBCO AmnioMAX-C100 Basal Medium liquid, containing AmnioMAX-C100 supplement. Penicillin/streptomycin (PS) (100 U/ml each) was added to both media. The cells were passaged at ~90% confluency. Functional studies were performed with passages up to 20. All cell lines were mycoplasma free.
# (§5) Cell viability as an indicator of the number of viable and proliferative cells was measured by MTT according to the protocol of the manufacturer (Sigma-Aldrich, Australia). In brief, 8000 DFTD and 5000 FIBS cells/well were seeded in a 96-flat adherent microtiter well plate for 24 h to allow cell adhesion. Gomesin peptides and/or analogues were then added to the plates to measure MTT reduction. Plates were measured after 48 h at 540 nm absorbance in a microplate reader (BIOTEK PowerWave XS, USA). 0.1% SDS was used as a positive control (100% toxicity). A row of untreated cells was used to define 100% viability and blank wells containing only media were used to extract background. The concentration of gomesin peptides causing 50% inhibition (EC50) in DFTD and FIBS cells was determined using GraphPad Prism Software (Graphpad Inc, USA).
# DFTD4 cells [5] = experiment: MTT cell viability, DFTD4 cells; type: cell-based, Tasmanian devil (Sarcophilus harrisii)
# Text: as §3, §4, §5
# DFTD4 cells [6] = experiment: qRT-PCR of cell cycle check-point, pro-survival and apoptosis genes; type: cell-based, Tasmanian devil (Sarcophilus harrisii); details: 50 μg/mL, vs. vehicle
# Procedure: Total RNA was extracted from both untreated (control) and gomesin-treated DFTD4 cells using an RNeasy kit (Qiagen, Australia) and 1 µg was reverse-transcribed into cDNA using SensiFast (Bioline, UK). Quantitative real time-PCR (qRT-PCR) to quantitate mRNA expression was performed on a LightCycler Instrument (Roche Molecular Biochemicals, Australia) with Tasmanian devil 18S used as the reference (housekeeper) gene. All primers are listed in Supplementary.
# DFTD2 cells = experiment: MTT cell viability, DFTD2 cells; type: cell-based, Tasmanian devil (Sarcophilus harrisii); details: Table 3, 48 h
# Text: as §1, §2
# cultured DFTD cells = details: cited from earlier work
# Text: In this pioneer study, we examined for the first time, in our knowledge, the therapeutic potential of spider-venom peptides against DFTD. Our study provides a molecular and mechanistic characterisation of the mode of action of gomesin peptides to prevent the proliferation of DFTD cells. This is especially relevant since the Tasmanian devil population has declined by at least 80%[1] and currently the therapeutic strategies to slow down the progression of DFTD in infective-devils have been ineffective. That was the case of vincristine, a chemotherapeutic agent used in human and veterinary medici ...
Molecule,EC50 (µg/mL) DFTD1 (DFTD1 cells) [µg/mL],ROS (DFTD4 cells [1]),early or late apoptotic cell ratio (DFTD4 cells [2]),necrosis of DFTD cells compared to untreated cells (DFTD4 cells [2]),G0/G1 (DFTD4 cells [3]),G2/M (DFTD4 cells [3]),S-phase (DFTD4 cells [3]),MMP (DFTD4 cells [4]),deleterious effects on FIBS viability (FIBS cells),"cell viability / anti-proliferative activity in DFTD4 cells (DFTD4 cells [5]; 50 µg/mL, 48 h)","EC50 (DFTD4 cells [5]; DFTD4 cells, 48 h exposure, three independent experiments in triplicate) [µg/mL]",expression of BCL2 (DFTD4 cells [6]),expression of p21 (DFTD4 cells [6]),expression of p53 (DFTD4 cells [6]),expression of pro-survival gene MCL1 (DFTD4 cells [6]),p27 expression (DFTD4 cells [6]),EC50 (µg/mL) DFTD2 (DFTD2 cells) [µg/mL],apoptotic activity against cultured DFTD cells (cultured DFTD cells)
"ZCRRLCYKQRCVTYCRGR-NH2 (bicyclic or more) [AgGom, 18-residue spider peptide gomesin first isolated from hemocytes of Acanthoscurria gomesiana]",20.4,significant increase in ROS,not altered,significantly increased necrosis,39.9 ± 1.32,14.3 ± 0.9,11.47 ± 1.35,significant decrease in MMP,not statistically significant,dramatically reduced the cell viability,25.25,enhanced,induction,enhanced,induction,statistically significant increase,12.29,
CC(C)Cn1cnc2c(N)nc3ccccc3c21 [imiquimod],,,,,,,,,,,,,,,,,,displayed apoptotic activity

# Source: paper PMC5841354, “Gomesin peptides prevent proliferation and lead to the cell death of devil facial tumour disease cells” (Cell Death Discovery, 2018)
